Data taken from ChEMBL document CHEMBL1201862, “PubChem BioAssay data set” (2004).
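Dose response: 5 concentrations. Exposure: 48 h. Format: 96-well plates. Endpoint: linear interpolation; highest concentration if not reached. Abbreviation: GI50, concentration required for 50% inhibition of growth.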 Calls of active or inactive are those of the source. Cut-off read from the data, not from the text of the source: active = GI50 up to about 1.1 µM and inactive = higher.

Key:
Test in all cases: NCI anticancer screen, dose series, 48 h
MDA-N = test system: MDA-N
RPMI-8226 = test system: RPMI-8226
ACHN = test system: ACHN
T47D = test system: T47D
HCT-15 = test system: HCT-15
SNB-19 = test system: SNB-19
EKVX = test system: EKVX
SF-295 = test system: SF-295
HOP-62 = test system: HOP-62
A498 = test system: A498
Malme-3M = test system: Malme-3M
SK-MEL-28 = test system: SK-MEL-28
HCT-116 = test system: HCT-116
KM12 = test system: KM12
TK-10 = test system: TK-10
UACC-62 = test system: UACC-62
SK-MEL-2 = test system: SK-MEL-2
MDA-MB-435 = test system: MDA-MB-435
CAKI-1 = test system: CAKI-1
K562 = test system: K562
CCRF-CEM = test system: CCRF-CEM
UACC-257 = test system: UACC-257
OVCAR-3 = test system: OVCAR-3
M14 = test system: M14
NCI/ADR-RES = test system: NCI/ADR-RES
DU-145 = test system: DU-145
IGROV-1 = test system: IGROV-1
HT-29 = test system: HT-29
A549 = test system: A549
SF-539 = test system: SF-539
MDA-MB-231 = test system: MDA-MB-231
NCI-H522 = test system: NCI-H522
OVCAR-8 = test system: OVCAR-8
HCC 2998 = test system: HCC 2998
NCI-H460 = test system: NCI-H460
OVCAR-5 = test system: OVCAR-5
U-251 = test system: U-251
OVCAR-4 = test system: OVCAR-4
MCF7 = test system: MCF7
PC-3 = test system: PC-3
SN12C = test system: SN12C
BT-549 = test system: BT-549
SK-OV-3 = test system: SK-OV-3
786-0 = test system: 786-0
COLO 205 = test system: COLO 205
RXF 393 = test system: RXF 393
LOX IMVI = test system: LOX IMVI
MOLT-4 = test system: MOLT-4
SNB-75 = test system: SNB-75
NCI-H23 = test system: NCI-H23
SF-268 = test system: SF-268
HL-60 = test system: HL-60
NCI-H226 = test system: NCI-H226
SW-620 = test system: SW-620

O=C(N/N=C(COc1ccc([N+](=O)[O-])cc1)\N=C\c1ccncc1)c1ccncc1
GI50 (MDA-N): > 100 µM (inactive)
GI50 (RPMI-8226): > 100 µM (inactive)
GI50 (ACHN): > 100 µM (inactive)
GI50 (T47D): > 100 µM (inactive)
GI50 (HCT-15): > 100 µM
GI50 (SNB-19): > 100 µM (inactive)
GI50 (EKVX): > 100 µM (inactive)
GI50 (SF-295): > 100 µM (inactive)
GI50 (HOP-62): > 100 µM (inactive)
GI50 (A498): > 100 µM (inactive)
GI50 (Malme-3M): > 100 µM (inactive)
GI50 (SK-MEL-28): > 100 µM (inactive)
GI50 (HCT-116): > 100 µM (inactive)
GI50 (KM12): > 100 µM (inactive)
GI50 (TK-10): > 100 µM (inactive)
GI50 (UACC-62): > 100 µM (inactive)
GI50 (SK-MEL-2): > 100 µM (inactive)
GI50 (MDA-MB-435): > 100 µM (inactive)
GI50 (CAKI-1): > 100 µM (inactive)
GI50 (K562): > 100 µM (inactive)
GI50 (CCRF-CEM): > 100 µM (inactive)
GI50 (UACC-257): > 100 µM (inactive)
GI50 (OVCAR-3): > 100 µM (inactive)
GI50 (M14): > 100 µM (inactive)
GI50 (NCI/ADR-RES): > 100 µM (inactive)
GI50 (DU-145): > 100 µM (inactive)
GI50 (IGROV-1): > 100 µM (inactive)
GI50 (HT-29): > 100 µM (inactive)
GI50 (A549): > 100 µM (inactive)
GI50 (SF-539): > 100 µM (inactive)
GI50 (MDA-MB-231): > 100 µM (inactive)
GI50 (NCI-H522): > 100 µM (inactive)
GI50 (OVCAR-8): 60.1 µM (inactive)
GI50 (HCC 2998): > 100 µM (inactive)
GI50 (NCI-H460): > 100 µM (inactive)
GI50 (OVCAR-5): > 100 µM (inactive)
GI50 (U-251): > 100 µM (inactive)
GI50 (OVCAR-4): > 100 µM (inactive)
GI50 (MCF7): > 100 µM (inactive)
GI50 (PC-3): > 100 µM (inactive)
GI50 (SN12C): > 100 µM (inactive)
GI50 (BT-549): > 100 µM (inactive)
GI50 (SK-OV-3): > 100 µM (inactive)
GI50 (786-0): > 100 µM (inactive)
GI50 (COLO 205): > 100 µM (inactive)
GI50 (RXF 393): > 100 µM (inactive)
GI50 (LOX IMVI): 0.564 µM (active)
GI50 (MOLT-4): > 100 µM (inactive)
GI50 (SNB-75): 94.6 µM (inactive)
GI50 (NCI-H23): > 100 µM (inactive)
GI50 (SF-268): > 100 µM (inactive)
GI50 (HL-60): > 100 µM (inactive)
GI50 (NCI-H226): > 100 µM (inactive)
GI50 (SW-620): > 100 µM (inactive)
